Experimental data from PubChem BioAssay AID1919006 (Molecular Pharmacology Branch, DTP, NCI, 2023).
pIC50: −log10 of the molar value.

System: 885512-296-R-J2-PDC complex spheroid growth, % test/control
Experiment: Anticancer human tumor 885512-296-R-J2-PDC patient-derived breast carcinoma cell line growth inhibition [AhR]
Details: for pIC50: curve of first compound; for viability, T/C: stronger effect = lower value
Source text: Multicellular complex tumor spheroid response to aryl hydrocarbon receptor antagonists in combination with a variety of drugs and investigational agents in selected tumor cell lines
The current study was undertaken to assess response to aryl hydrocarbon receptor antagonists in combination with standard-of-care drugs and investigational agents in solid tumor complex spheroid models. Complex spheroids include a stromal component modeled by human endothelial cells (HUVEC) and fibroblasts modeled by human mesenchymal stem cells (MSCs). The concentration ranges selected for each drug and investigational agent were based upon clinically achievable concentrations if the clinical Cmax of the agent was known.
Compounds. The drugs and investigational agents: BAY 2416964 (NSC825713), GNF351 (NSC835774), CH-223191 (NSC835775), CPI-455 (NSC825282), aza-TdCyd (NSC777586), decitabine (NSC127716), belinostat (NSC758774), entinostat (NSC756642), pevonedistat (NSC761192), tazemetostat (NSC777109), talazoparib (NSC765396), olaparib (NSC753686), selinexor (NSC780203), nedisertib (M3814, NSC802822), bortezomib (NSC756655), venetoclax (NSC766270), doxorubicin (NSC123127), elimusertib (BAY189344, NSC800525), ceralasertib (AZD6738, NSC777638), TAK-243 (NSC785004), alisertib (NSC759677), etoposide (NSC141540), topotecan (NSC609699), eribulin (NSC707389), gemcitabine (NSC613327), carboplatin (NSC241240), cisplatin (NSC119875), and SN-38 (NSC673596) were obtained from the National Cancer Institute (NCI) Developmental Therapeutics Program Chemical Repository (32). The FDA-approved anticancer drug set is available from the Developmental Therapeutics Program at https://dtp.cancer.gov/organization/dscb/obtaining/available plates.htm. […] The stock solutions were prepared in dimethyl sulfoxide (DMSO, Sigma-Aldrich, St. Louis, MO, cat. D2650), except for the platinum compounds which were prepared in saline (Quality Biological, Gaithersburg, MD, cat. 114-055-101), at 800-fold the tested concentration and stored at -70 degrees C prior to their use. All drugs and investigational agents were tested over a range starting from a high concentration at or near the clinical Cmax and decreasing in half-log increments. If the clinical Cmax for an agent had not been determined, the highest concentration tested was 10 microM (Table 1).
Cell Culture. All cells were maintained in an incubator at 37 degrees C and 5% CO2 with 95% humidity. The PDC lines were cultured according to standard operating procedures established by the NCI PDMR (https://pdmr.cancer.gov). Briefly, all PDCs were thawed and cultured in Matrigel-coated flasks prepared with a working solution of 1X Ham's F-12 nutrient mix, without supplementation (Invitrogen, Waltham, MA, cat. 11765054), 100 U/mL penicillin-streptomycin (Invitrogen, cat. 15140122), and 2.5% Matrigel (Corning Inc., Corning, NY, cat. 354248) for the first three passages. All PDCs were cultured in complete DMEM/F-12 media containing advanced DMEM/F-12 (Invitrogen, cat. 12634028), 4.9% defined fetal bovine serum, heat inactivated (HyClone Laboratories Inc., Logan, UT, cat. SH30070.03HI), 389 ng/mL hydrocortisone (Sigma-Aldrich, cat. H4001), 9.7 ng/mL human EGF recombinant protein (Invitrogen, cat. PHG0313), 23.4 microg/mL adenine (Sigma-Aldrich, cat. A2786), 97.3 U/mL penicillin-streptomycin (Invitrogen, cat. 15140122), 1.9 mM L-glutamine (Invitrogen, cat. 25030081), and 9.7 microM Y-27632 dihydrochloride (Tocris Bioscience, Bristol, United Kingdom, cat. 1254). The PDCs were cultured in complete DMEM/F12 media without 10 microM Y-27632 dihydrochloride for at least two passages prior to the screen. The established cell lines NCI-H1341 and […] were cultured in DMEM/F-12, HEPES (Invitrogen, cat. 11330032), 5% defined fetal bovine serum (HyClone Laboratories Inc., cat. SH30070.03), ITS premix universal culture supplement [insulin (5 microg/mL), transferrin (5 microg/mL), and selenious acid (5 ng/mL)] […]

[1] = second compound 0.1 µM, first compound 0.0316 µM
[2] = second compound 0.1 µM, first compound 0.1 µM
[3] = second compound 0.1 µM, first compound 0.316 µM
[4] = second compound 0.1 µM, first compound 1 µM
[5] = second compound 0.1 µM, first compound 3.16 µM
[6] = second compound 0.1 µM, first compound 10 µM
[7] = second compound 0.316 µM, first compound 0.0316 µM
[8] = second compound 0.316 µM, first compound 0.1 µM
[9] = second compound 0.316 µM, first compound 0.316 µM
[10] = second compound 0.316 µM, first compound 1 µM
[11] = second compound 0.316 µM, first compound 3.16 µM
[12] = second compound 0.316 µM, first compound 10 µM
[13] = second compound 1 µM, first compound 0.0316 µM
[14] = second compound 1 µM, first compound 0.1 µM
[15] = second compound 1 µM, first compound 0.316 µM
[16] = second compound 1 µM, first compound 1 µM
[17] = second compound 1 µM, first compound 3.16 µM
[18] = second compound 1 µM, first compound 10 µM
[19] = second compound 3.16 µM, first compound 0.0316 µM
[20] = second compound 3.16 µM, first compound 0.1 µM
[21] = second compound 3.16 µM, first compound 0.316 µM
[22] = second compound 3.16 µM, first compound 1 µM
[23] = second compound 3.16 µM, first compound 3.16 µM
[24] = second compound 3.16 µM, first compound 10 µM
[25] = second compound 10 µM, first compound 0.0316 µM
[26] = second compound 10 µM, first compound 0.1 µM
[27] = second compound 10 µM, first compound 0.316 µM
[28] = second compound 10 µM, first compound 1 µM
[29] = second compound 10 µM, first compound 3.16 µM
[30] = second compound 10 µM, first compound 10 µM
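Note: spheroids exposed to compounds for seven days.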

pIC50 (second compound 0.1 µM)	pIC50 (second compound 0.316 µM)	pIC50 (second compound 1 µM)	pIC50 (second compound 3.16 µM)	pIC50 (second compound 10 µM)	SMILES	viability, T/C [1]	viability, T/C [2]	viability, T/C [3]	viability, T/C [4]	viability, T/C [5]	viability, T/C [6]	viability, T/C [7]	viability, T/C [8]	viability, T/C [9]	viability, T/C [13]	viability, T/C [14]	viability, T/C [19]	viability, T/C [20]	viability, T/C [25]	viability, T/C [26]	other results
5.20	5.14	5.12	5.11	5.07	CC1(C)CCC(CN2CCN(c3ccc(C(=O)NS(=O)(=O)c4ccc(NCC5CCOCC5)c([N+](=O)[O-])c4)c(Oc4cnc5[nH]ccc5c4)c3)CC2)=C(c2ccc(Cl)cc2)C1 + CC(CO)NC(=O)c1cc(-c2ccc(Cl)cc2)nn(-c2cnn(C)c2)c1=O	111%	105%	102%	91.7%	70.7%	36.4%	96.3%	111%	100%	96.7%	108%	102%	118%	106%	99.4%	viability, T/C [10]: 96.5%; viability, T/C [11]: 70.6%; viability, T/C [12]: 41.7%; viability, T/C [15]: 112%; viability, T/C [16]: 99.7%; viability, T/C [17]: 78.6%; viability, T/C [18]: 41%; viability, T/C [21]: 103%; viability, T/C [22]: 100%; viability, T/C [23]: 81.5%; viability, T/C [24]: 41.6%; viability, T/C [27]: 103%; viability, T/C [28]: 103%; viability, T/C [29]: 90.8%; viability, T/C [30]: 42.6%
5.61	6.63	6.34	5.87	< 5.00	COc1cc(Nc2ncc3c(n2)-c2ccc(Cl)cc2C(c2c(F)cccc2OC)=NC3)ccc1C(=O)O + CC(CO)NC(=O)c1cc(-c2ccc(Cl)cc2)nn(-c2cnn(C)c2)c1=O	53%	48.3%	51.4%	57.6%	46.4%	48.3%	54.9%	45.5%	55%	57.6%	51.2%	59.6%	55.5%	48.5%	59.5%	viability, T/C [10]: 43.3%; viability, T/C [11]: 45%; viability, T/C [12]: 37%; viability, T/C [15]: 55.7%; viability, T/C [16]: 46.7%; viability, T/C [17]: 43%; viability, T/C [18]: 50.2%; viability, T/C [21]: 51.2%; viability, T/C [22]: 55.5%; viability, T/C [23]: 44.6%; viability, T/C [24]: 46.2%; viability, T/C [27]: 58.4%; viability, T/C [28]: 62.3%; viability, T/C [29]: 56.2%; viability, T/C [30]: 50.5%
< 7.00	< 7.00	< 7.00	< 7.00	< 7.00	Cn1ncnc1C1c2n[nH]c(=O)c3cc(F)cc(c23)NC1c1ccc(F)cc1 (stereo not given) + CC(CO)NC(=O)c1cc(-c2ccc(Cl)cc2)nn(-c2cnn(C)c2)c1=O	87.1%	69.1%	–	–	–	–	73%	63.9%	–	79.1%	64.7%	84.9%	64.6%	67.1%	51.1%	viability, T/C (second compound 0.1 µM, first compound 0.000316 µM): 107%; viability, T/C (second compound 0.1 µM, first compound 0.001 µM): 108%; viability, T/C (second compound 0.1 µM, first compound 0.00316 µM): 103%; viability, T/C (second compound 0.1 µM, first compound 0.01 µM): 96.6%; viability, T/C (second compound 0.316 µM, first compound 0.000316 µM): 102%; viability, T/C (second compound 0.316 µM, first compound 0.001 µM): 96.9%; viability, T/C (second compound 0.316 µM, first compound 0.00316 µM): 98.5%; viability, T/C (second compound 0.316 µM, first compound 0.01 µM): 107%; viability, T/C (second compound 1 µM, first compound 0.000316 µM): 104%; viability, T/C (second compound 1 µM, first compound 0.001 µM): 96.4%; viability, T/C (second compound 1 µM, first compound 0.00316 µM): 101%; viability, T/C (second compound 1 µM, first compound 0.01 µM): 89.3%; viability, T/C (second compound 3.16 µM, first compound 0.000316 µM): 90.1%; viability, T/C (second compound 3.16 µM, first compound 0.001 µM): 101%; viability, T/C (second compound 3.16 µM, first compound 0.00316 µM): 107%; viability, T/C (second compound 3.16 µM, first compound 0.01 µM): 82.9%; viability, T/C (second compound 10 µM, first compound 0.000316 µM): 96.7%; viability, T/C (second compound 10 µM, first compound 0.001 µM): 97.9%; viability, T/C (second compound 10 µM, first compound 0.00316 µM): 88.9%; viability, T/C (second compound 10 µM, first compound 0.01 µM): 79.2%
7.01	7.00	7.00	7.05	7.23	NS(=O)(=O)OCC1CC(n2ccc3c(NC4CCc5ccccc54)ncnc32)CC1O (stereo not given) + CC(CO)NC(=O)c1cc(-c2ccc(Cl)cc2)nn(-c2cnn(C)c2)c1=O	111%	48.4%	15%	7.66%	6.85%	5.35%	97.6%	49.5%	15.9%	106%	50.3%	84.1%	46.1%	65.6%	36.1%	viability, T/C [10]: 7.66%; viability, T/C [11]: 5.71%; viability, T/C [12]: 6.67%; viability, T/C [15]: 17.3%; viability, T/C [16]: 7.69%; viability, T/C [17]: 7.18%; viability, T/C [18]: 7.68%; viability, T/C [21]: 16.7%; viability, T/C [22]: 7.54%; viability, T/C [23]: 7.16%; viability, T/C [24]: 7.08%; viability, T/C [27]: 19.3%; viability, T/C [28]: 8.18%; viability, T/C [29]: 6.74%; viability, T/C [30]: 6.33%
